Data on 16 compounds can be found in article PMC6600393, “Synthesis and Cytostatic Effect of 3’-deoxy-3’-C-Sulfanylmethyl Nucleoside Derivatives with D-xylo Configuration” (Molecules, 2019).

In assay [1] the test system is SCC-VII (mouse squamous carcinoma) cell line. As to the kind of experiment: MTT cell viability assay on SCC-VII cells. The format is cell-based. As to conditions: for SCC IC50: MTT, 48 h incubation, 5000 cells/well, '-' = no cytotoxicity at 20 µg/mL; for IC50: Mus musculus, 48 h; for SI (selectivity index): HaCaT IC50/SCC IC50. The protocol:
(§1) For the investigation of the cytotoxic effect of nucleoside analogues we used healthy human keratinocyte (HaCaT) and tumorous squamous carcinoma SCC-VII cell lines. In the experiments, a standard citotoxicity assay, the MTT assay, was used in a 96-well plate. Importantly, different cell numbers were used in the case of the two different cell lines. The HaCaT cells were seeded 10^4/well concentration while the SCC-VII cells were seeded 5000/well concentration on the plate. In both cases the cells were treated with the nucleoside analogues at ~50% confluence.
SCC-VII is a carcinoma tumor that originally arose in the abdominal wall of C3H mice in Dr. Herman Suit’s laboratory at Harvard University, Boston, Massachusetts. SCC VII cells were grown in Dulbecco’s Modified Eagle’s Medium Nutrient Mixture (DMEM-HAM’S F12) (Sigma-Aldrich) supplemented with 2 mM L-glutamine, 23 mM NaHCO3, 100 U/mL penicillin, 100 U/mL streptomycin 1% non-essential amino acids and 10% fetal bovine serum.
(§2) Cell cultures had been kept under the same conditions during the experiments. Cells were stored at 37 °C, 95% humidity, and 5% CO2 in an incubator. During the MTT-assay, different starter cell number was used because of the cell cycle differences; HaCaT was started with 10.000/well meanwhile SCC VII with 5000/well. After passage, 24 h was assured for the cells to the adhesion. Then incubated with the compounds for 48 h. The experiments were performed in 96 well plates.
(§3) For the dilution of different concentrations of nucleoside analogues were prepared with DMSO 1% (v/v) and DMEM / DMEM-F12/Ham’s F12 cell culture medium.
(§4) After three days of incubation in the cell culture flask, cells were trypsinised into single cell suspensions. Aliquots (200 μL) of each cell suspension were placed in wells of 96-well-plates (Biocenter, Szeged, Hungary). Preliminary tests were conducted with cell numbers 5000 (SCC-VII) and 10,000 (HaCaT) per well. We have been tested five concentrations of each nucleoside analogues (20-10-5-2.5-1.25 µg/mL). The nucleoside analogues were dissolved in DMSO (1 v/v%) and DMEM/ DMEM-F12/Ham’s F12 were added to the wells to produce the required concentrations and the cells were similarly incubated for a further 48 h.
(§5) MTT (Sigma Aldrich, Budapest, Hungary) solution (0.5 mg/mL in PBS) 100 µL was added to each well. The plates were incubated for 1–2 h at 37 ^◦C, the wells aspirated, and MTT formazan extracted with 100 µL of DMSO aided by gentle agitation on a shaker. After 10 min at room temperature, the absorbances were read at 570 nm by an automatic plate reader (WALLAC Victor 2 1420 spectrophotometer), the instrument having been blanked beforehand on a row to which cells had not been added. Percentage viability (respiratory competence) of the population of cells in each well was expressed as: (Absorbance of treated cells/Absorbance of control cells) × 100. IC50 values of the nucleoside analogues were determined by Graphpad.
In general terms: Tetrazolium assays rely on reduction of a dye to a coloured formazan, in cell work by metabolically active cells.

Assay [2] concerns HaCaT (human keratinocyte) cell line. Nature of the assay: MTT cell viability assay on HaCaT cells. The format is cell-based. As to conditions: for IC50: Homo sapiens, HaCaT, 48 h; for HaCaT IC50: MTT, 48 h incubation, 10,000 cells/well, '-' = no cytotoxicity at 20 µg/mL. The protocol:
as §1
The HaCaT cell line was derived from human skin, the cells spontaneously transformed in vitro during long time incubation. Cells were cultured in DMEM medium (Biocenter, Szeged, Hungary) containing 10% fetal bovine serum (FBS, Hyclon, Logan, UT) and 1% antibiotic-antimycotic mix (Penicillin–Streptomycin–Neomycin).
as §2, §3, §4, §5

“Also recorded” adds a separate entry of the source.

Usually IC50 stands for the point on the concentration scale where inhibition reaches its midpoint. Higher therefore signals lower potency.

For the compound `CC(=O)OC[C@H]1O[C@@H](SC[C@@H]2[C@@H](O[Si](C)(C)C(C)(C)C)[C@H](n3ccc(=O)[nH]c3=O)O[C@@H]2CO[Si](C)(C)C(C)(C)C)[C@H](OC(C)=O)[C@@H](OC(C)=O)[C@@H]1OC(C)=O` [Compound 1], in assay [1], the “SCC IC50” value is given as “no cytotoxic effect; also recorded: no cytotoxicity; also recorded: complete loss of activity” and the IC50 was greater than 20 µg/mL. In assay [2], the IC50 was greater than 20 µg/mL and the “HaCaT IC50” value is listed as “no cytotoxic effect; also recorded: no cytotoxicity; also recorded: complete loss of activity”.

For `CCCSC[C@@H]1[C@@H](O[Si](C)(C)C(C)(C)C)[C@H](n2ccc(=O)[nH]c2=O)O[C@@H]1CO[Si](C)(C)C(C)(C)C` [Compound 2], in assay [1], the “SI (selectivity index)” value was found to be 1.07, the “SCC IC50” value is reported as “remarkable toxic effect” and the IC50 is 11.8 ± 0.22 µM. In assay [2], the IC50 turned out to be 12.6 ± 0.22 µM and the “HaCaT IC50” value is “remarkable toxic effect”.

As for `CC(=O)OC[C@H]1O[C@@H](SC[C@@H]2[C@@H](O[Si](C)(C)C(C)(C)C)[C@H](n3cc(C)c(=O)[nH]c3=O)O[C@@H]2CO[Si](C)(C)C(C)(C)C)[C@H](OC(C)=O)[C@@H](OC(C)=O)[C@@H]1OC(C)=O` [Compound 3], in assay [1], the “SCC IC50” value is listed as “no cytotoxic effect; also recorded: no cytotoxicity; also recorded: complete loss of activity” and the IC50 is greater than 20 µg/mL. In assay [2], it took 22.4 ± 2.91 µM to reach half-maximal inhibition (IC50) and the “HaCaT IC50” value is given as “quite toxic”.

Consider `CC(=O)OCC1OC(SCC2C(CO[Si](C)(C)C(C)(C)C)OC(n3cc(C)c(=O)[nH]c3=O)C2O[Si](C)(C)C(C)(C)C)C(OC(C)=O)C(OC(C)=O)C1OC(C)=O` (stereo not drawn) [Compound 4], for which, in assay [1], the “SCC IC50” value is listed as “no cytotoxic effect; also recorded: no cytotoxicity; also recorded: complete loss of activity” and the IC50 is greater than 20 µg/mL. In addition, in assay [2], the IC50 is greater than 20 µg/mL and the “HaCaT IC50” value is listed as “no cytotoxic effect; also recorded: no cytotoxicity; also recorded: complete loss of activity”.

Consider `CCCSC[C@@H]1[C@@H](O[Si](C)(C)C(C)(C)C)[C@H](n2cc(C)c(=O)[nH]c2=O)O[C@@H]1CO[Si](C)(C)C(C)(C)C` [Compound 5, 1-[3’-Deoxy-3’-C-(n-propylsulfanylmethyl)-2’,5’-di-O-(tert-butyldimethylsilyl)-β-D-xylofuranosyl]-thymine], for which, in assay [1], the “SI (selectivity index)” value is reported as 1.46, the “SCC IC50” value was “remarkable toxic effect” and half-maximal inhibition (IC50) was put at 15.2 ± 1 µM. For the same compound, in assay [2], half-maximal inhibition (IC50) required 22.2 ± 1.7 µM and the “HaCaT IC50” value is listed as “remarkable toxic effect”.

Take `Cc1cn([C@@H]2O[C@H](CO[Si](C)(C)C(C)(C)C)[C@@H](O)[C@H]2O[Si](C)(C)C(C)(C)C)c(=O)[nH]c1=O` [Compound 6T, 2’,5’-di-O-tert-butyldimethylsilyl-ribothymidine]: in assay [1], the “SI (selectivity index)” value worked out at 0.83, the “SCC IC50” value is reported as “remarkable toxicity” and the concentration for half-maximal inhibition (IC50) stood at 18.8 ± 0.74 µM. Moreover, in assay [2], the IC50 was 15.6 ± 4.45 µM and the “HaCaT IC50” value was “remarkable toxicity”.

On to `CCSC[C@@H]1[C@@H](O[Si](C)(C)C(C)(C)C)[C@H](n2cc(C)c(=O)[nH]c2=O)O[C@@H]1CO[Si](C)(C)C(C)(C)C` [Compound 8, 1-[3’-Deoxy-3’-C-(ethylsulfanylmethyl)-2’,5’-di-O-(tert-butyldimethylsilyl)-β-D-xylofuranosyl]-thymine], for which the “SI (selectivity index)” value in assay [1] stood at 1.09. The IC50 in assay [1] came to 15.5 ± 0.59 µM; in assay [2] it was 16.9 ± 0.55 µM.

With `Cc1cn([C@@H]2O[C@H](CO[Si](C)(C)C(C)(C)C)[C@H](CSC(C)C)[C@H]2O[Si](C)(C)C(C)(C)C)c(=O)[nH]c1=O` [Compound 9, 1-[3’-Deoxy-3’-C-(i-propylsulfanylmethyl)-2’,5’-di-O-(tert-butyldimethylsilyl)-β-D-xylofuranosyl]-thymine], in assay [1], the “SI (selectivity index)” value was 1.49 and the midpoint of inhibition, the IC50, lay at 15.2 ± 0.48 µM. This compound showed an IC50 in assay [2] of 22.7 ± 1.34 µM.

With `Cc1cn([C@@H]2O[C@H](CO[Si](C)(C)C(C)(C)C)[C@H](CSCC(C)C)[C@H]2O[Si](C)(C)C(C)(C)C)c(=O)[nH]c1=O` [Compound 11, 1-[3’-Deoxy-3’-C-(i-butylsulfanylmethyl)-2’,5’-di-O-(tert-butyldimethylsilyl)-β-D-xylofuranosyl]-thymine], in assay [1], the “SI (selectivity index)” value worked out at 0.66 and 23.5 ± 0.12 µM corresponded to half-maximal inhibition (IC50). In assay [2], this compound showed an IC50 of 15.5 ± 2.14 µM.

On to `Cc1cn([C@@H]2O[C@H](CO[Si](C)(C)C(C)(C)C)[C@H](CSC(C)(C)C)[C@H]2O[Si](C)(C)C(C)(C)C)c(=O)[nH]c1=O` [Compound 12, 1-[3’-Deoxy-3’-C-(t-butylsulfanylmethyl)-2’,5’-di-O-(tert-butyldimethylsilyl)-β-D-xylofuranosyl]-thymine], for which the IC50 is 31.1 ± 0.79 µM in assay [1] and greater than 34.9 µM in assay [2].

On to `CCCCCCSC[C@@H]1[C@@H](O[Si](C)(C)C(C)(C)C)[C@H](n2cc(C)c(=O)[nH]c2=O)O[C@@H]1CO[Si](C)(C)C(C)(C)C` [Compound 13, 1-[3’-Deoxy-3’-C-(n-hexylsulfanylmethyl)-2’,5’-di-O-(tert-butyldimethylsilyl)-β-D-xylofuranosyl]-thymine], for which, in assay [1], the “SI (selectivity index)” value came to 1.44 and the IC50 stood at 15.9 ± 0.32 µM. For the same compound, the midpoint of inhibition in assay [2], the IC50, lay at 22.9 ± 0.57 µM.

`CCCCCCCCSC[C@@H]1[C@@H](O[Si](C)(C)C(C)(C)C)[C@H](n2cc(C)c(=O)[nH]c2=O)O[C@@H]1CO[Si](C)(C)C(C)(C)C` [Compound 14, 1-[3’-Deoxy-3’-C-(n-octylsulfanylmethyl)-2’,5’-di-O-(tert-butyldimethylsilyl)-β-D-xylofuranosyl]-thymine]: in assay [1], the “SI (selectivity index)” value is 1.02 and the IC50 stood at 26 ± 0.76 µM. In addition, in assay [2], the IC50 is 26.4 ± 0.37 µM.

`CCCCCCCCCCCCSC[C@@H]1[C@@H](O[Si](C)(C)C(C)(C)C)[C@H](n2cc(C)c(=O)[nH]c2=O)O[C@@H]1CO[Si](C)(C)C(C)(C)C` [Compound 15, 1-[3’-Deoxy-3’-C-(n-dodecylsulfanylmethyl)-2’,5’-di-O-(tert-butyldimethylsilyl)-β-D-xylofuranosyl]-thymine]: in assay [1], the “SCC IC50” value is “complete loss of activity” and the IC50 was greater than 20 µg/mL. In assay [2], the IC50 is greater than 20 µg/mL and the “HaCaT IC50” value was “complete loss of activity”.

Turning to `Cc1cn([C@@H]2O[C@H](CO[Si](C)(C)C(C)(C)C)[C@H](CSCc3ccccc3)[C@H]2O[Si](C)(C)C(C)(C)C)c(=O)[nH]c1=O` [Compound 16, 1-[3’-Deoxy-3’-C-(benzylsulfanylmethyl)-2’,5’-di-O-(tert-butyldimethylsilyl)-β-D-xylofuranosyl]-thymine], in assay [1], the “SI (selectivity index)” value is 0.98 and the IC50 amounted to 14.6 ± 0.19 µM. This compound also came in with an IC50 in assay [2] of 14.3 ± 0.36 µM.

Regarding `Cc1cn([C@@H]2O[C@H](CO[Si](C)(C)C(C)(C)C)[C@H](CSCCO)[C@H]2O[Si](C)(C)C(C)(C)C)c(=O)[nH]c1=O` [Compound 17, 1-[3’-Deoxy-3’-C-(2-hydroxyethylsulfanylmethyl)-2’,5’-di-O-(tert-butyldimethylsilyl)-β-D-xylofuranosyl]-thymine], in assay [1], the “SI (selectivity index)” value worked out at 0.91 and the IC50 was determined as 16 ± 0.17 µM. This compound displayed an IC50 in assay [2] of 14.6 ± 0.82 µM.

For `CCCCSC[C@@H]1[C@@H](O[Si](C)(C)C(C)(C)C)[C@H](n2ccc(=O)[nH]c2=O)O[C@@H]1CO[Si](C)(C)C(C)(C)C` [Compound 18, 1-[3’-Deoxy-3’-C-(n-butylsulfanylmethyl)-2’,5’-di-O-(tert-butyldimethylsilyl)-β-D-xylofuranosyl]-uracil], in assay [1], the “SI (selectivity index)” value came to 1.32 and the IC50 came out at 10.9 ± 0.18 µM. Moreover, half-maximal inhibition in assay [2] (IC50) required 14.4 ± 1.59 µM.
